B1: AT1G59700.1_1: uORF of AT1G59700.1; peptide SEQ ID NO: 7 (nucleic acid)
DNA: ATGATATGTCCGTTTAGAAACAGACAAAATAAGAAGAAGAAGAAAGAGTCGTGGAGGATTCTTCATTCTTCCTCATCCTCTTCTTCACCGATTCATTAG
modifications: listed as DNA, chemistry not fully specified
B2: AT1G59990.1: 5′ UTR of transcript; DEA(D/H)-box RNA helicase family protein (nucleic acid)
DNA: AGTGAGCTAATGAAGAGAGAGACTGAAACAGAGGTTTCTTACTTTCTTCTCTGTATCTCTCATATTTTGCTTAAACCCTAAAACCCTTTTTGGATTAGGTTTTCTCCAAATCTTATCCGCCGTGATAAAATCTGATTGCTTTTTTTCTTCATGAAAGTTTGATTTGTGAAACTCG
B3: AT1G59990.1_1: uORF of AT1G59990.1; peptide SEQ ID NO: 8 (nucleic acid)
DNA: ATGAAGAGAGAGACTGAAACAGAGGTTTCTTACTTTCTTCTCTGTATCTCTCATATTTTGCTTAAACCCTAA
modifications: listed as DNA, chemistry not fully specified
B4: AT1G72390.1: 5′ UTR of transcript (nucleic acid)
DNA: CCTTTCTCTTCCGATCGCATCTTCTTCAAAAATTTCCCACCTGTGTTTCACAAATTCCATGTTTATGAATTCTTCATTGCTCTATTCTTAGTCACCTTTGATTTCTCTCGCTTTCTATCCGATCCAATTGTTTGATGATCTTCTCTGTAACAAGCTCATAAGGTTTGAGCTTCATCTCTCTGGAGAGAATCC
B5: AT2G34630.1: 5′ UTR of transcript; geranyl diphosphate synthase 1 (nucleic acid)
DNA: AAGCGAACAAGTCTTTGCCTCTTTGGTTTACTTTCCTCTGTTTTCGATCCATTTAGAAAATGTTATTCACGAGGAGTGTTGCTCGGATTTCTTCTAAGTTTCTGAGAAACCGTAGCTTCTATGGCTCCTCTCAATCTCTCGCCTCTCATCGGTTCGCAATCATTCCCGATCAGGGTCACTCTTGTTCTGACTCTCCACACAAGTAGGGTTACGTTTGCAGAACAACTTATTCATTGAAATCTCCGGTTTTTGGTGGATTTAGTCATCAACTCTATCACCAGAGTAGCTCCTTGGTTGAGGAGGAGCTTGACCCATTTTCGCTTGTTGCCGATGAGCTGTCACTTCTTAGTAATAAGTTGAGAGAG

System: Arabidopsis
Experiment: Ribo-seq and RNA-seq global translatome profiling (translational efficiency TE, mORF/uORF ribo-shift) upon elf18 treatment
Assay type: in vivo
Set-up: key to score (Ribo-shift): Up: ribo-shift up (i.e., increased mORF/uORF ratio); Down: ribo-shift down (i.e., decreased mORF/uORF ratio)
Settings: elf18 vs Mock; for score (Ribo-shift): shift of mORF/uORF ratio, per uORF; for score (TE change): translational efficiency fold change, listed as shows 5′ UTR of the transcript

Molecule	score (Ribo-shift)	score (TE change)
AT3G56010.1_1: uORF of AT3G56010.1; peptide SEQ ID NO: 19 (DNA ATGCGTCGCTCTTAA; listed as DNA, chemistry not fully specified)	Up	
AT4G17840.1_4: uORF of AT4G17840.1; peptide SEQ ID NO: 22 (DNA ATGTTATAA; listed as DNA, chemistry not fully specified)	Up	
AT3G18140.1_2: uORF of AT3G18140.1; peptide SEQ ID NO: 17 (DNA ATGGTTGGTTTAATATTTCAATCGGGATAA; listed as DNA, chemistry not fully specified)	Down	
AT1G30330.13: uORF of AT1G30330.1; peptide SEQ ID NO: 5 (DNA ATGAGTGGGGTGGATTAA; listed as DNA, chemistry not fully specified)	Down	
AT2G42950.1_1: uORF of AT2G42950.1; peptide SEQ ID NO: 12 (DNA ATGATCTTACGTGAAATTGCAGCCTAA; listed as DNA, chemistry not fully specified)	Down	
AT4G32660.1_1: uORF of AT4G32660.1; peptide SEQ ID NO: 28 (DNA ATGTCGTCGCGGTTCGACCCCAAGGGATTTGGCCGGTAA; listed as DNA, chemistry not fully specified)	Down	
AT5G14930.1_1: uORF of AT5G14930.1; peptide SEQ ID NO: 34 (DNA ATGGACTCTCGTTCTCAGACATTTATTTCTCTCAGTCTTACAATATAA; listed as DNA, chemistry not fully specified)	Down	
AT4G11110.1_1: uORF of AT4G11110.1; peptide SEQ ID NO: 21 (DNA ATGATTGGCTTCTCACGATTCGATTTTTCCGGCTCCTGTTCTTAA; listed as DNA, chemistry not fully specified)	Up	
AT4G23740.1_1: uORF of AT4G23740.1; peptide SEQ ID NO: 24 (DNA ATGCCAAAAAATAAGAACAAAATTATATCCGTTGCTTGA; listed as DNA, chemistry not fully specified)	Up	
AT3G63340.1_1: uORF of AT3G63340.1; peptide SEQ ID NO: 20 (DNA ATGAAGCAATTGTTCCTTTCAAGCATGTTTACGAGCAAAAGAGTGAAAGGGTAG; listed as DNA, chemistry not fully specified)	Down	
AT5G11790.1_1: uORF of AT5G11790.1; peptide SEQ ID NO: 33 (DNA ATGGAAAGATAA; listed as DNA, chemistry not fully specified)	Down	
ATG48300.1_1: uORF of AT1G48300.1; peptide SEQ ID NO: 6 (DNA ATGCGGCGAGGAGAAAGAGAAGGTTAA; listed as DNA, chemistry not fully specified)	Up	
AT2G34630.1_2: uORF of AT2G34630.1; peptide SEQ ID NO: 10 (DNA ATGAGCTGTCACTTCTTAGTAATAAGTTGA; listed as DNA, chemistry not fully specified)	Up	
AT3G03070.1_1: uORF of AT3G03070.1; peptide SEQ ID NO: 15 (DNA ATGCGTTGTTTGGTACAGCTTCACGAACAATCTCTCTCTCGATAG; listed as DNA, chemistry not fully specified)	Down	
AT1700.1_1: uORF of AT1G16700.1; peptide SEQ ID NO: 2 (DNA ATGTTCTTGTGA; listed as DNA, chemistry not fully specified)	Down	
AT1G19270.1_3: uORF of AT1G19270.1; peptide SEQ ID NO: 3 (DNA ATGAGCAGATAG; listed as DNA, chemistry not fully specified)	Down	
AT4G34460.1_1: uORF of AT4G34460.1; peptide SEQ ID NO: 30 (DNA ATGAACCTTCTTCTCTTCTAG; listed as DNA, chemistry not fully specified)	Up	
AT5G57460.1_1: uORF of AT5G57460.1; peptide SEQ ID NO: 37 (DNA ATGTTTCAATCTAACCATTGA; listed as DNA, chemistry not fully specified)	Up	

Molecule	score (Ribo-shift)	score (TE change)
AT1G72390.1_1: uORF of AT1G72390.1; peptide SEQ ID NO: 9 (DNA ATGTTTATGAATTCTTCATTGCTCTATTCTTAG; listed as DNA, chemistry not fully specified)	Down	
AT4G32800.1_1: uORF of AT4G32800.1; peptide SEQ ID NO: 29 (DNA ATGATAGAAACAAGAACTATCTTTTTATAA; listed as DNA, chemistry not fully specified)	Down	
AT2G47210.1_1: uORF of AT2G47210.1; peptide SEQ ID NO: 13 (DNA ATGATAGCTACCCAGTAA; listed as DNA, chemistry not fully specified)	Up	
AT3G02570.1_2: uORF of AT3G02570.1; peptide SEQ ID NO: 14 (DNA ATGCTTGAGATATTTTGTTTTTACCTCCGAGAAACGGATTTAGATTCGTAA; listed as DNA, chemistry not fully specified)	Down	
AT1G12580.1_1: uORF of AT1G12580.1; peptide SEQ ID NO: 1 (DNA ATGCAGCTTGCGATTTCATAG; listed as DNA, chemistry not fully specified)	Up	
AT4G26080.1_3: uORF of AT4G26080.1; peptide SEQ ID NO: 27 (DNA ATGTGTTTCTTCTTGTCTTCCTAG; listed as DNA, chemistry not fully specified)	Down	
AT4G37925.1_1: uORF of AT4G37925.1; peptide SEQ ID NO: 31 (DNA ATGGTTCTGTAA; listed as DNA, chemistry not fully specified)	Riboshift Down ATGGTTCTGTAA (SEQ ID	
AT4G23740.1_2: uORF of AT4G23740.1; peptide SEQ ID NO: 25 (DNA ATGGCGGTTCTTCACATTATCTTCACTGCGTAA; listed as DNA, chemistry not fully specified)	Down	
AT1G48300.1: 5′ UTR of transcript (DNA CGAGATGCGGCGAGGAGAAAGAGAAGGTTAAGGTT; listed as DNA, chemistry not fully specified)		TEup (448 had increased TEfc)
AT4G18570.1_1: uORF of AT4G18570.1; peptide SEQ ID NO: 23 (DNA ATGCTTTTAATTTCCATGCAAATCTCTCCTTTCTTCTCAAGTCATTTTTGA; listed as DNA, chemistry not fully specified)	Up	
AT4G38950.1_1: uORF of AT4G38950.1; peptide SEQ ID NO: 32 (DNA ATGTGCCCCAAAAGATAA; listed as DNA, chemistry not fully specified)	Down	
AT1G30330.1_1: uORF of AT1G30330.1; peptide SEQ ID NO: 4 (DNA ATGTTCTGCAACAGTTGA; listed as DNA, chemistry not fully specified)	Up	
AT3G15030.1_2: uORF of AT3G15030.1; peptide SEQ ID NO: 16 (DNA ATGGGTTAG; listed as DNA, chemistry not fully specified)	Down	
B1	Down	
B2		TEdown (389 genes displayed decreased TEfc (|z|≥1.5))
B3	Down	
B4		TEup (448 had increased TEfc)
B5		TEup (448 had increased TEfc)
